The results in this text go back to patent US11447470B2, “Pyrimidinone-containing compound, preparation method thereof, pharmaceutical composition and application thereof” (YUNNAN UNIVERSITY, priority 2018, dated 2022).

Each structure is given as a SMILES string. Like-named read-outs stand apart in the source and are kept apart here.

The nature of series [1]: Cytotoxicity experiment (MTT method) on C8166 cells. In kind it is cell-based. As to conditions: human. The protocol: (§1) C8166 cells infected with HIV-1 were used for determining the anti-HIV biological activity at the cellular level. The specific method was described below.
Cytotoxicity experiment: The toxicity of the compounds on C8166 cells was determined by MTT method. In 96-well cell culture plates, the compounds were subjected to 5-fold serial dilution and 100 μL of C8166 cell suspension (4×10^5/mL) was added into each well. Triplicate wells were set for each concentration. […] The cells were incubated at 37° C. in a 5% CO2 incubator for three days, followed by the addition of MTT solution into each well, and then the cells were incubated at 37° C. for 4 hours. 10% SDS-50% DMF was added into each well and the cells were incubated at 37° C. in a 5% CO2 incubator overnight. After mixing evenly, the OD values were measured by BIO-TEK ELx800 ELISA instrument (determination wavelength: 570 nm; reference wavelength: 630 nm).
In general terms: Tetrazolium assays rely on reduction of a dye to a coloured formazan, in cell work by metabolically active cells.

Series [2] deals with HIV-1IIIB. Kind of series: Syncytium inhibition experiment, C8166 cells infected with HIV-1IIIB. The class given is cell-based. As to conditions: Human immunodeficiency virus 1, 72 h; HIV-1IIIB (MOI=0.04) in C8166 cells, syncytium count, three days. The protocol:
as §1
Syncytium inhibition experiment: 100 μL of C8166 cell suspension (4×10^5/mL) was seeded into each well of 96-well cell culture plates containing 5-fold serial dilutions of the compounds, followed by addition of HIV-1IIIB diluted supernatant (MOI=0.04). Triplicate wells were set for each serial concentration. […] The cells were cultured at 37° C. in a 5% CO2 incubator for three days. The number of the syncytia was counted in five non-overlapping fields of view by using an inverted microscope (100×).

[3] abbreviates: C8166 cells, MTT, three days, read-out: CC50.

A word on the CC50: it is the concentration at which the toxic effect on the cells reaches its halfway point. A word on the EC50: it is the concentration that produces a half-maximal response. Lower therefore signals greater potency. In series [1], `Cc1cn([C@H]2C[C@H](N=[N+]=[N-])[C@@H](CO)O2)c(=O)[nH]c1=O` [AZT, Zidovudine, reference compound] yielded a CC50 at 3 days of over 749 µM. Further, a half-maximal response in series [2] (EC50) required 49 nM. On to `CCc1c(CC2CCCCC2)nc(SCc2n[nH]c(-c3ccccc3)c2Cl)[nH]c1=O` [Compound I-01], for which the midpoint of the response in series [2], the EC50, lay at 99 nM. As for `CCc1c(CC2CCCCC2)nc(SCc2cc(-c3ccccc3)[nH]n2)[nH]c1=O` [Compound I-02], the EC50 in series [2] is 7 nM. On the same count and under the same terms, to `CCc1c(CC2CCCCC2)nc(SCc2cc(-c3cccc(Br)c3)[nH]n2)[nH]c1=O` [Compound I-03] belongs 51 nM; to `CCc1c(CC2CCCCC2)nc(SCc2n[nH]c(-c3cccc(Br)c3)c2Cl)[nH]c1=O` [Compound I-04], 101 nM. Regarding `CCc1c(CC2CCCCC2)nc(SCc2cc(-c3cccc(Cl)c3)[nH]n2)[nH]c1=O` [Compound I-05], the concentration giving a half-maximal response (EC50) in series [2] turned out to be 66 nM.

For `CCc1c(CC2CCCCC2)nc(SCc2n[nH]c(-c3cccc(Cl)c3)c2Cl)[nH]c1=O` [Compound I-06], the EC50 in series [2] is 57 nM.

Turning to `CCc1c(CC2CCCCC2)nc(SCc2cc(-c3ccc(Cl)cc3)[nH]n2)[nH]c1=O` [Compound I-07], the concentration giving a half-maximal response (EC50) in series [2] was 18 nM. The same measure, in the same setting: under `CCc1c(CC2CCCCC2)nc(SCc2cc(-c3ccc(F)cc3)[nH]n2)[nH]c1=O` [Compound I-08] stands 20 nM. Turning to `CCc1c(CC2CCCCC2)nc(SCc2n[nH]c(-c3ccc(F)cc3)c2Cl)[nH]c1=O` [Compound I-09], the EC50 in series [2] is 18 nM. Same read-out and setting: under `CCc1c(CC2CCCCC2)nc(SCc2cc(-c3ccc(OC)cc3)[nH]n2)[nH]c1=O` [Compound I-10] stands 23 nM; under `CCc1c(CC2CCCCC2)nc(SCc2n[nH]c(-c3ccc(OC)c(Cl)c3)c2Cl)[nH]c1=O` [Compound I-11], 130 nM; under `CCc1c(CC2CCCCC2)nc(SCc2cc(-c3ccc(Cl)c(Cl)c3)[nH]n2)[nH]c1=O` [Compound I-12], 310 nM. `CCc1c(CC2CCCCC2)nc(SCc2cc(-c3cccc(F)c3)[nH]n2)[nH]c1=O` [Compound I-14] came in with a half-maximal effective concentration (EC50) in series [2] of 35 nM. On to `CCc1c(CC2CCCCC2)nc(SCc2n[nH]c(-c3cccc(F)c3)c2Cl)[nH]c1=O` [Compound I-15], for which, in series [2], a half-maximal effect (EC50) was put at 71 nM. On the same count and under the same terms, under `CCc1c(CC2CCCCC2)nc(SCc2n[nH]c(-c3ccc(Cl)cc3)c2Cl)[nH]c1=O` [Compound I-16] stands 89 nM. On the same count and under the same terms, to `CCc1c(CC2CCCCC2)nc(SCc2cc(-c3ccc(O)cc3)[nH]n2)[nH]c1=O` [Compound I-17] belongs 4 nM; to `CCc1c(CC2CCCCC2)nc(SCc2cc(-c3ccc(F)c(F)c3)[nH]n2)[nH]c1=O` [Compound I-18], 162 nM; to `CCc1c(CC2CCCCC2)nc(SCc2n[nH]c(-c3ccc(F)c(F)c3)c2Cl)[nH]c1=O` [Compound I-19], 151 nM.

Compound `CCc1c(CC2CCCCC2)nc(SCc2cc(-c3ccc(F)cc3F)[nH]n2)[nH]c1=O` [Compound I-20] registered a concentration for a half-maximal effect (EC50) in series [2] of 42 nM. Regarding `CCc1c(CC2CCCCC2)nc(SCc2cc(-c3ccc(C)cc3)[nH]n2)[nH]c1=O` [Compound I-21], in series [1] (setting [3]), the 50% cytotoxic concentration (CC50) at 3 days was 82.8 µM. The compound also returned an EC50 in series [2] of 74 nM. With `CCc1c(CC2CCCCC2)nc(SCc2n[nH]c(-c3ccc(C)cc3)c2Cl)[nH]c1=O` [Compound I-22], the response in series [2] was half-maximal at 138 nM (EC50). As for `CCc1c(CC2CCCCC2)nc(SCc2cc(-c3cccc(C)c3)[nH]n2)[nH]c1=O` [Compound I-23], the CC50 at 3 days in series [1] (setting [3]) was 91.4 µM. For the same compound, a half-maximal response in series [2] (EC50) required 52 nM. On to `CCc1c(CC2CCCCC2)nc(SCc2n[nH]c(-c3cccc(C)c3)c2Cl)[nH]c1=O` [Compound I-24], for which the half-maximal effective concentration (EC50) in series [2] stood at 86 nM.

As to `CCc1c(CC2CCCCC2)nc(SCc2cc(-c3ccc(SC)cc3)[nH]n2)[nH]c1=O` [Compound I-25], a half-maximal response in series [2] (EC50) required 12 nM. The compound `CCc1c(CC2CCCCC2)nc(SCc2cc(-c3cccc(C(F)(F)F)c3)[nH]n2)[nH]c1=O` [Compound I-26] returned an EC50 in series [2] of 302 nM. In series [2], `CCc1c(CC2CCCCC2)nc(SCc2n[nH]c(-c3cccc(C(F)(F)F)c3)c2Cl)[nH]c1=O` [Compound I-27] gave an EC50 of 182 nM.

For the compound `CCc1c(CC2CCCCC2)nc(SCc2cc(-c3ccc(C(C)C)cc3)[nH]n2)[nH]c1=O` [Compound I-28], in series [2], a half-maximal effect (EC50) was put at 147 nM. In series [2], `CCc1c(CC2CCCCC2)nc(SCc2cc(-c3ccc(C)cc3C)[nH]n2)[nH]c1=O` [Compound I-29] showed an EC50 of 476 nM. Still for that read-out and setting: to `CCc1c(CC2CCCCC2)nc(SCc2cc(C(C)(C)C)[nH]n2)[nH]c1=O` [Compound I-30] belongs 296 nM; to `CCc1c(CC2CCCCC2)nc(SCc2cc[nH]n2)[nH]c1=O` [Compound I-31], 33 nM; to `CCc1c(CC2CCCCC2)nc(SCc2cc(C)[nH]n2)[nH]c1=O` [Compound I-32], 28 nM. As for `CCc1c(CC2CCCCC2)nc(SCc2cc(C3CC3)[nH]n2)[nH]c1=O` [Compound I-33], the midpoint of the response in series [2], the EC50, lay at 25 nM. Take `CCc1c(CC2CCCCC2)nc(SCc2cc(-c3ccccn3)[nH]n2)[nH]c1=O` [Compound I-34]: the EC50 in series [2] came to 23 nM. On to `CC(C)c1c(CC2CCCCC2)nc(SCc2cc(-c3ccccc3)[nH]n2)[nH]c1=O` [Compound I-35], for which the cytotoxic concentration (CC50) at 3 days in series [1] amounted to 104 µM. The same compound displayed an EC50 in series [2] of 2 nM. For `CC(C)c1c(CC2CCCCC2)nc(SCc2cc(-c3ccc(Cl)cc3)[nH]n2)[nH]c1=O` [Compound I-36], in series [1], it took 91.2 µM to reach half-maximal cytotoxicity (CC50 at 3 days). The same compound showed an EC50 in series [2] of 9 nM. In the case of `CC(C)c1c(CC2CCCCC2)nc(SCc2n[nH]c(-c3ccc(F)cc3)c2Cl)[nH]c1=O` [Compound I-37], in series [1], the CC50 at 3 days is 73 µM. In series [2], the EC50 is 6 nM. For `CC(C)c1c(CC2CCCCC2)nc(SCc2cc(-c3ccc(O)cc3)[nH]n2)[nH]c1=O` [Compound I-38] the same measures were 156 µM and 3 nM. `CC(C)c1c(CC2CCCCC2)nc(SCc2cc(-c3ccc(F)cc3)[nH]n2)[nH]c1=O` [Compound I-39]: in series [1], half-maximal cytotoxicity (CC50 at 3 days) was put at 99 µM. The same compound had an EC50 in series [2] of 16 nM. As to `Cc1c(CC2CCCCC2)nc(SCc2cc(-c3ccccc3)[nH]n2)[nH]c1=O` [Compound I-41], a half-maximal effect in series [2] (EC50) was put at 186 nM. In other words, the sub-micromolar range. Still for that read-out and setting: to `Cc1c(CC2CCCCC2)nc(SCc2cc(-c3ccc(F)cc3)[nH]n2)[nH]c1=O` [Compound I-42] belongs 355 nM. The same measure, in the same setting: under `COc1ccc(-c2cc(CSc3nc(CC4CCCCC4)c(C)c(=O)[nH]3)n[nH]2)cc1` [Compound I-43] stands 194 nM; under `O=c1cc(CC2CCCCC2)nc(SCc2cc(-c3ccccc3)[nH]n2)[nH]1` [Compound I-44], 5340 nM; under `O=c1cc(CC2CCCCC2)nc(SCc2cc(-c3ccc(F)cc3)[nH]n2)[nH]1` [Compound I-45], 10100 nM. Same read-out and setting: under `COc1ccc(-c2cc(CSc3nc(CC4CCCCC4)cc(=O)[nH]3)n[nH]2)cc1` [Compound I-46] stands 3960 nM. With `Cc1c(CC2CCCCC2)nc(SCc2cc(-c3ccc(O)cc3)[nH]n2)[nH]c1=O` [Compound I-47], the half-maximal cytotoxic concentration (CC50) at 3 days in series [1] stood at 61.8 µM. Moreover, it took 142 nM to reach a half-maximal effect in series [2] (EC50). The like results for `O=c1cc(CC2CCCCC2)nc(SCc2n[nH]c(-c3ccccc3)c2Cl)[nH]1` [Compound I-48] were, in that order, 98.9 µM and 927 nM. For `CCc1c(Cc2ccc3c(c2)OCO3)nc(SCc2cc(-c3ccc(F)cc3)[nH]n2)[nH]c1=O` [Compound I-50] the same measures were 78 µM and 2970 nM. The like results for `CCc1c(Cc2c(Cl)cccc2Cl)nc(SCc2cc(-c3ccc(F)cc3)[nH]n2)[nH]c1=O` [Compound I-51] were, in that order, 45.5 µM and 602 nM.

Take `O=c1cc(CC2CCCCC2)nc(SCc2n[nH]c(-c3ccc(F)c(F)c3)c2Cl)[nH]1` [Compound I-54]: in series [1], it took 89 µM to reach half-maximal cytotoxicity (CC50 at 3 days). Moreover, in series [2], a half-maximal effect (EC50) was put at 3880 nM. For `Cc1c(CC2CCCCC2)nc(SCc2n[nH]c(-c3ccc(F)c(F)c3)c2Cl)[nH]c1=O` [Compound I-56] the same measures were 40.3 µM and 587 nM. The like results for `CCc1c(Cc2cc(F)cc(F)c2)nc(SCc2n[nH]c(-c3ccc(F)c(F)c3)c2Cl)[nH]c1=O` [Compound I-57] were, in that order, 81.1 µM and 80 nM. Compound `CCc1c(Cc2ccccc2)nc(SCc2cc(-c3ccc(F)c(F)c3)[nH]n2)[nH]c1=O` [Compound I-58] registered a half-maximal cytotoxic concentration (CC50) at 3 days in series [1] of 81 µM. Moreover, in series [2], the half-maximal effective concentration (EC50) was found to be 400 nM.

As to `O=c1cc(CC2CCCCC2)nc(SCc2cc(-c3ccc(F)c(F)c3)[nH]n2)[nH]1` [Compound I-59], in series [1], the midpoint of cytotoxicity, the CC50 at 3 days, lay at 89.1 µM. In series [2], this compound yielded an EC50 of 23900 nM. The like results for `CCc1c(Cc2c(Cl)cccc2Cl)nc(SCc2cc(-c3ccc(F)c(F)c3)[nH]n2)[nH]c1=O` [Compound I-60] were, in that order, 64.9 µM and 733 nM.

`CCc1c(Cc2cc(F)cc(F)c2)nc(SCc2cc(-c3ccc(F)c(F)c3)[nH]n2)[nH]c1=O` [Compound I-61] showed a CC50 at 3 days in series [1] of 46.4 µM. Also, a half-maximal effect in series [2] (EC50) was put at 124 nM. In series [2], `Cc1ccnc2c1NC(=O)c1cccnc1N2C1CC1` [NVP, Nevirapine, reference compound] had an EC50 of 58.4 nM.
